Test results published in PubChem BioAssay AID248 (DTP/NCI, 2004).
Several values for one entry are separate records, joined by “and”; a condition that tells them apart may be missing. Identical values can stand only once. Toxic doses and inconclusive results are not listed.

Tested on: L1210 leukemia ip in BDF1 mice, survival T/C
Experiment: NCI In Vivo Anticancer Drug Screen. Data for tumor model L1210 Leukemia (intraperitoneal) in B6D2F1 (BDF1) mice
Conditions: endpoint: mean survival time, higher = longer survival
Outline: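 Survival endpoint. Drug-treated group vs vehicle group, expressed as T divided by C. Tumor passaged by transplantation.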

[1] = dose: 50.0 mg/kg/injection, schedule: Q01DX001 (ip), vehicle: saline
[2] = dose: 100.0 mg/kg/injection, schedule: Q01DX001 (ip), vehicle: saline
[3] = dose: 400.0 mg/kg/injection, schedule: Q01DX001 (ip), vehicle: saline
[4] = dose: 200.0 mg/kg/injection, schedule: Q01DX009 (ip), vehicle: saline
[5] = dose: 100.0 mg/kg/injection, schedule: Q01DX001 (ip), vehicle: Klucel (hydroxypropylcellulose) (HPC)
[6] = dose: 200.0 mg/kg/injection, schedule: Q01DX001 (ip), vehicle: Klucel (hydroxypropylcellulose) (HPC)
[7] = dose: 400.0 mg/kg/injection, schedule: Q01DX001 (ip), vehicle: Klucel (hydroxypropylcellulose) (HPC)
[8] = dose: 100.0 mg/kg/injection, schedule: Q01DX009 (ip), vehicle: Klucel (hydroxypropylcellulose) (HPC)
[9] = dose: 200.0 mg/kg/injection, schedule: Q01DX009 (ip), vehicle: Klucel (hydroxypropylcellulose) (HPC)
[10] = dose: 400.0 mg/kg/injection, schedule: Q01DX009 (ip), vehicle: Klucel (hydroxypropylcellulose) (HPC)
[11] = dose: 200.0 mg/kg/injection, schedule: Q01DX001 (ip), vehicle: saline
[12] = dose: 100.0 mg/kg/injection, schedule: Q01DX001 (ip), vehicle: saline with Tween-80
[13] = dose: 200.0 mg/kg/injection, schedule: Q01DX001 (ip), vehicle: saline with Tween-80
[14] = dose: 400.0 mg/kg/injection, schedule: Q01DX001 (ip), vehicle: saline with Tween-80
[15] = dose: 100.0 mg/kg/injection, schedule: Q04DX002 (ip), vehicle: Klucel (hydroxypropylcellulose) (HPC)
[16] = dose: 100.0 mg/kg/injection, schedule: Q04DX003 (ip), vehicle: Klucel (hydroxypropylcellulose) (HPC)
[17] = dose: 200.0 mg/kg/injection, schedule: Q04DX002 (ip), vehicle: Klucel (hydroxypropylcellulose) (HPC)
[18] = dose: 200.0 mg/kg/injection, schedule: Q04DX003 (ip), vehicle: Klucel (hydroxypropylcellulose) (HPC)
[19] = dose: 400.0 mg/kg/injection, schedule: Q04DX002 (ip), vehicle: Klucel (hydroxypropylcellulose) (HPC)
[20] = dose: 400.0 mg/kg/injection, schedule: Q04DX003 (ip), vehicle: Klucel (hydroxypropylcellulose) (HPC)
[21] = dose: 100.0 mg/kg/injection, schedule: Q01DX009 (ip), vehicle: saline with Tween-80
[22] = dose: 100.0 mg/kg/injection, schedule: Q04DX003 (ip), vehicle: saline with Tween-80
[23] = dose: 200.0 mg/kg/injection, schedule: Q04DX003 (ip), vehicle: saline with Tween-80

With COC(=O)CCC(=O)NCC(=O)OCc1ccccc1 the T/C (dose: 100.0 mg/kg/injection, schedule: Q01DX001 (ip), vehicle: water) was 105 % of control, the T/C (dose: 100.0 mg/kg/injection, schedule: Q04DX003 (ip), vehicle: water) was 100 % of control and the T/C (dose: 200.0 mg/kg/injection, schedule: Q01DX001 (ip), vehicle: water) was 107 % of control. The T/C (dose: 200.0 mg/kg/injection, schedule: Q04DX003 (ip), vehicle: water) was 96 % of control, the T/C (dose: 400.0 mg/kg/injection, schedule: Q01DX001 (ip), vehicle: water) was 105 % of control and the T/C (dose: 400.0 mg/kg/injection, schedule: Q04DX003 (ip), vehicle: water) was 90 % of control.

O=c1[nH]c2c(cnn2-c2ccccc2)c(=O)n1O was tested, and the T/C [1] was 97 % of control and the T/C [2] was 100 % of control.

Cc1ccccc1NC(=O)C1CCCC1=O (stereo unspecified) was tested, and the T/C [1] was 101 % of control, the T/C [2] was 103 % of control and the T/C [3] was 109 % of control.

With CC1(C)N=C(N)N=C(N)N1c1ccc(CCC(=O)Nc2ccc(S(=O)(=O)F)cc2)cc1 the T/C (dose: 0.8 mg/kg/injection, schedule: Q01DX009 (ip), vehicle: saline) was 97 % of control, the T/C (dose: 4.0 mg/kg/injection, schedule: Q01DX009 (ip), vehicle: saline) was 105 % of control and the T/C (dose: 8.8 mg/kg/injection, schedule: Q01DX009 (ip), vehicle: saline) was 117 % of control. The T/C (dose: 13.0 mg/kg/injection, schedule: Q01DX009 (ip), vehicle: saline) was 121 % of control, the T/C (dose: 20.0 mg/kg/injection, schedule: Q01DX009 (ip), vehicle: saline) was 121 % of control and the T/C (dose: 50.0 mg/kg/injection, schedule: Q01DX009 (ip), vehicle: saline) was 163 % of control. For the same molecule, the T/C (dose: 75.0 mg/kg/injection, schedule: Q## X003 (ip), vehicle: saline) was 122 % of control, the T/C [4] was 100 % of control and the T/C (dose: 600.0 mg/kg/injection, schedule: Q## X003 (ip), vehicle: saline) was 102 % of control.

In the case of CC1(C)OC2C(CO)OC(n3nnc4c(SCc5ccccc5)nc(N)nc43)C2O1 (stereo unspecified), the T/C [5] is reported as 98 % of control, the T/C [6] is reported as 92 % of control and the T/C [7] is reported as 101 % of control.

COc1cc(/C=N/O)cc(I)c1O was tested, and the T/C [8] was 104 % of control, the T/C [9] was 101 % of control and the T/C [10] was 101 % of control.

For C[P+]1(c2ccccc2)C2C=CC=CC1C=C2 (stereo unspecified), the T/C (dose: 5.0 mg/kg/injection, schedule: Q01DX001 (ip), vehicle: carboxymethylcellulose (CMC)) was 100 % of control, the T/C (dose: 10.0 mg/kg/injection, schedule: Q01DX001 (ip), vehicle: carboxymethylcellulose (CMC)) was 92 % of control and the T/C (dose: 20.0 mg/kg/injection, schedule: Q01DX001 (ip), vehicle: carboxymethylcellulose (CMC)) was 97 % of control.

In the case of O=C(CCCC(=O)NNC(=S)Nc1ccccc1)NNC(=S)Nc1ccccc1, the T/C [1] is reported as 100 % of control, the T/C [2] is reported as 100 % of control and the T/C [11] is reported as 97 % of control. The T/C [3] was 100 % of control.

Nc1ccc(OCCNC(=O)c2ccc(S(=O)(=O)F)cc2)c(Cl)c1 was tested, and the T/C [12] was 94 % of control, the T/C [13] was 89 % of control and the T/C [14] was 96 % of control.

For Nc1nc(N)c(CCCOc2ccc(NC(=O)c3cc(S(=O)(=O)F)ccc3Cl)cc2)c(N)n1, the T/C [5] was 99 % of control, the T/C [6] was 99 % of control and the T/C [7] was 105 % of control.

In the case of NC(=O)C1CCN(C(=O)Nc2cc(C(F)(F)F)ccc2Cl)CC1, the T/C [5] is reported as 93 % of control, the T/C [8] is reported as 98 % of control and 102 % of control and the T/C [15] is reported as 103 % of control and 107 % of control. The T/C [16] was 111 % of control, the T/C [6] was 86 % of control and the T/C [9] was 93 % of control and 98 % of control. For the same molecule, the T/C [17] was 100 % of control and 105 % of control, the T/C [18] was 103 % of control and the T/C [7] was 91 % of control. The T/C [10] was 95 % of control, the T/C [19] was 100 % of control and the T/C [20] was 107 % of control.

For C[N+]1(Cc2ccccc2)CCC(=O)CC1, the T/C [1] was 97 % of control, the T/C [2] was 100 % of control and the T/C [11] was 103 % of control.

In the case of COc1cc(Cl)ccc1NC(=O)OCc1ccco1, the T/C (dose: 100.0 mg/kg/injection, schedule: Q01DX009 (ip), vehicle: saline) is reported as 111 % of control, the T/C [4] is reported as 111 % of control and the T/C (dose: 400.0 mg/kg/injection, schedule: Q01DX009 (ip), vehicle: saline) is reported as 100 % of control.

In the case of O=C1C=C(Br)C(=O)C1(Br)Br, the T/C (dose: 75.0 mg/kg/injection, schedule: Q01DX001 (sc), vehicle: olive oil, sesame oil, peanut oil) is reported as 117 % of control.

In the case of c1ccc(C2=NCCN=C2c2ccccc2)cc1, the T/C [16] is reported as 97 % of control, the T/C [18] is reported as 97 % of control and the T/C [20] is reported as 93 % of control.

In the case of O=C1C2C3C=CC(CC3)C2S(=O)(=O)C2C3C=CC(CC3)C12 (stereo unspecified), the T/C (dose: 25.0 mg/kg/injection, schedule: Q04DX002 (ip), vehicle: gum acacia) is reported as 96 % of control, the T/C (dose: 50.0 mg/kg/injection, schedule: Q04DX002 (ip), vehicle: gum acacia) is reported as 104 % of control and the T/C (dose: 100.0 mg/kg/injection, schedule: Q04DX002 (ip), vehicle: gum acacia) is reported as 100 % of control.

With Oc1ccc(Br)cc1C=Nc1cnc2ccccc2c1 the T/C (dose: 100.0 mg/kg/injection, schedule: Q01DX001 (ip), vehicle: carboxymethylcellulose (CMC)) was 90 % of control and the T/C (dose: 200.0 mg/kg/injection, schedule: Q01DX001 (ip), vehicle: carboxymethylcellulose (CMC)) was 90 % of control.

In the case of C=CCc1ccc(OC(=O)Nc2ccccc2C)c(OC)c1, the T/C [8] is reported as 96 % of control and the T/C [9] is reported as 95 % of control.

For CCOC(=O)C1(C(=O)OCC)CCC2Nc3cc4c(cc3C(=O)N21)OCO4 (stereo unspecified), the T/C (dose: 12.5 mg/kg/injection, schedule: Q04DX003 (ip), vehicle: Klucel (hydroxypropylcellulose) (HPC)) was 99 % of control, the T/C (dose: 25.0 mg/kg/injection, schedule: Q04DX003 (ip), vehicle: Klucel (hydroxypropylcellulose) (HPC)) was 100 % of control and the T/C (dose: 50.0 mg/kg/injection, schedule: Q04DX003 (ip), vehicle: Klucel (hydroxypropylcellulose) (HPC)) was 96 % of control.

In the case of Nc1ccc(CCCCc2ccc(Cl)cc2Cl)cc1, the T/C (dose: 50.0 mg/kg/injection, schedule: Q01DX001 (ip), vehicle: Klucel (hydroxypropylcellulose) (HPC)) is reported as 100 % of control, the T/C (dose: 50.0 mg/kg/injection, schedule: Q01DX009 (ip), vehicle: saline with Tween-80) is reported as 96 % of control and the T/C [5] is reported as 94 % of control. The T/C [21] was 102 % of control and the T/C [6] was 109 % of control.

c1ccc2c(c1)Sc1ccccc1N2C[C@H]1CCCN2CCCC[C@H]12 was tested, and the T/C (dose: 75.0 mg/kg/injection, schedule: Q01DX009 (ip), vehicle: Klucel (hydroxypropylcellulose) (HPC)) was 102 % of control, the T/C (dose: 75.0 mg/kg/injection, schedule: Q04DX003 (ip), vehicle: Klucel (hydroxypropylcellulose) (HPC)) was 102 % of control and the T/C (dose: 150.0 mg/kg/injection, schedule: Q01DX009 (ip), vehicle: Klucel (hydroxypropylcellulose) (HPC)) was 91 % of control. The T/C (dose: 150.0 mg/kg/injection, schedule: Q04DX003 (ip), vehicle: Klucel (hydroxypropylcellulose) (HPC)) was 97 % of control, the T/C (dose: 300.0 mg/kg/injection, schedule: Q01DX009 (ip), vehicle: Klucel (hydroxypropylcellulose) (HPC)) was 89 % of control and the T/C (dose: 300.0 mg/kg/injection, schedule: Q04DX003 (ip), vehicle: Klucel (hydroxypropylcellulose) (HPC)) was 102 % of control.

CCCCC(CC)CO.[Ti] (stereo unspecified) was tested, and the T/C [22] was 96 % of control and the T/C [23] was 96 % of control.

For COc1cc(NC(=O)CC(C)=O)c(OC)cc1Cl, the T/C [22] was 100 % of control, the T/C [23] was 102 % of control and the T/C (dose: 400.0 mg/kg/injection, schedule: Q04DX003 (ip), vehicle: saline with Tween-80) was 102 % of control.

With CCCCNC(=O)c1cc(Cl)cc(Cl)c1Br the T/C [12] was 91 % of control, the T/C [13] was 90 % of control and the T/C [14] was 93 % of control.

With O=C(/C=C(\C(=O)c1ccccc1)c1ccccc1)c1ccc(-c2ccccc2)cc1 the T/C [15] was 97 % of control, the T/C [17] was 101 % of control and the T/C [19] was 93 % of control.

With NC(=O)C1CN1Cc1ccccc1 (stereo unspecified) the T/C [21] was 97 % of control, the T/C (dose: 200.0 mg/kg/injection, schedule: Q01DX009 (ip), vehicle: saline with Tween-80) was 95 % of control and the T/C (dose: 400.0 mg/kg/injection, schedule: Q01DX009 (ip), vehicle: saline with Tween-80) was 89 % of control.
